The target in test [1] is T1, full-length recombinant MrkA protein (Klebsiella pneumoniae, UniProt P12267).
T1 construct: purchased MyBiosource MBS1248970
The test can be described thus: Sandwich ELISA of PCC binding to full-length MrkA. As to conditions: for binding / affinity to full-length MrkA protein (ELISA signal): compared with cy(LLFFF); for affinities to MrkA (likely): ELISA, full-length recombinant MrkA. Here is the method: The screen yielded 26 hits (Table 2) that were sequenced, scaled up, and tested for binding to full-length recombinant MrkA in solution by single-point sandwich Enzyme-linked immunoassays (ELISAs) (FIG. 8). HPraGly is present before X1 in each peptide and Az4 follows X5 in each peptide.
An alanine scan was performed to establish which residues of cy(LLFFF) (SEQ ID NO:5) contribute most to MrkA binding. In this assay, a sandwich ELISA is used to quantify the affinity of several cy(LLFFF) (SEQ ID NO:5) analogues, in which one residue is substituted with an alanine, towards full-length MrkA protein. The ELISA results in FIG. 4 show lower signal for every alanine-substituted cy(LLFFF) (SEQ ID NO:5) analogue compared to unmodified cy(LLFFF) (SEQ ID NO:5), establishing that the native compound has the highest affinity. […] Thus, these two C-terminal phenylalanine residues (FIG. 3A, arrows in inset) play critical roles in MrkA binding, and are targets for modifications to improve binding. Another important detail of these alanine scan results is a strong dependence of MrkA binding on the residue position, independent of residue type. For example, cy(LLAFF) (SEQ ID NO:9) and cy(LLFFA) (SEQ ID NO:11) have very different binding affinities, despite having the same phenylalanine-to-alanine substitution.
In vitro ELISA assays. ELISA assays for MrkA-binding and epitope selectivity were performed on clear NeutrAvidin Coated High Capacity Plates (ThermoFisher, 15507). The buffer used for all washes and to dissolve all compounds was TBST+0.1% BSA (TBS+0.05% Tween 20+0.1% BSA, pH 7.3) and, unless otherwise stated, steps were conducted at room temperature. Each wash involved a brief 20 s agitation, and all conjugation, blocking, and incubation steps were performed with gentle agitation over the entire stated time period. The general procedure for an ELISA assay was: wash 3×200 μL/well, conjugate with 2 μM of biotinylated compound for 2 h at room temperature (100 μL/well), wash 3×200 μL/well, blocked overnight in 5 wt % milk at 4° C., wash […] with wash buffer, incubate with titrated compound (e.g., MrkA or epitope) for 1 h, […], incubate with primary antibody […] for 1 h (100 μL/well), wash 3×200 μL/well, incubate with 1:2,000 anti-rabbit secondary antibody-horseradish peroxidase conjugate (Cell signaling Technologies, 7074S) for 1 h, 3×200 μL/well, develop with the Microwell Peroxidase Substrate System (2-C) (SeraCare, 5120-0047) using 100 μL/well for 1-40 minutes, and quench using 1 M H2SO4 (aq.) at 100 μL/well. For MrkA binding assays, biotinylated PCCs were conjugated to the well surface, recombinant MrkA with an N-terminal 6×His-SUMO-tag (MyBiosource, MBS1248970) was titrated at the desired concentration, and the primary antibody was His-tag antibody, pAb, Rabbit (Genscript, A00174) at a 1:5,000 dilution. For epitope selectivity assays, biotinylated SynEps were conjugated, DNP-conjugated AR-PCCs were titrated at a desired concentration, and the primary antibody was anti-DNP antibody produced in Rabbit (Sigma-Aldrich, D9656) at a 1:8,000 dilution. […] For binding tests in the context of mouse sera, the “titrated compound” described in the steps above was dispersed in a solution containing the desired concentration of mouse serum.
(In general: ELISA stands for enzyme-linked immunosorbent assay.)

The subject of test [2] is K. pneumoniae cells (strain BAA 1705). The test can be described thus: Gentamicin protection assay: phagocytosis and opsonophagocytic killing (OPK) by macrophages. The format is cell-based, Klebsiella pneumoniae. As to conditions: AR-PCC 5 μM, 1 h. Here is the method: FIGS. 7A and 7B show a gentamicin protection assay that evaluates EPI-driven phagocytosis and opsonophagocytic killing (OPK) of K. pneumoniae cells by murine bone-marrow-derived macrophages. FIG. 7A is a flow diagram depicting the assay used to evaluate EPI-driven opsonophagocytic killing (OPK) of K. pneumoniae cells. Briefly, K. pneumoniae cells (strain BAA 1705) opsonized by EPIs (AR-PCCs) and anti-DNP antibodies were incubated with macrophages for 1 or 24 h. Macrophages were lysed, and the lysate was plated to obtain bacterial colonies that were subsequently counted. FIG. 7B is a plot of colony counts for various samples subjected to the OPK assay. […] All EPIs (AR-PCCs) were used at a 5 μM concentration, measurements were conducted in triplicate, and error bars reflect standard deviations. cy(LLFFA) is SEQ ID NO:11.
It also tested whether DNP-conjugated EPIs could promote the opsonophagocytic killing (OPK) of K. pneumoniae by macrophages. This was tested by using an OPK assay. Briefly, K. pneumoniae cells were treated with EPI and then anti-DNP antibody before being exposed to macrophages for either 6 or 24 hours. During this incubation period, macrophages that recognize K. pneumoniae cells will phagocytose them, and phagocytosed bacteria will remain viable for up to 6 hours, but within 24 hours are rendered inviable by OPK. Thus, macrophages were isolated after 6 and 24 hours of incubation with K. pneumoniae, lysed them, and plated and grew the lysate, which yielded bacterial colonies that reflect the phagocytosis (at 6 hrs) or OPK (at 24 hrs) of bacteria.
Given that cy(LLFFF)-DNP (SEQ ID NO:5) recruits antibodies to K. pneumoniae surfaces, it was expected that K. pneumoniae opsonized in this manner would be more susceptible to phagocytosis by macrophages. AR-PCC-driven phagocytosis and OPK were quantified by a gentamicin protection assay, as depicted in FIG. 7A. For this assay, K. pneumoniae cells (strain BAA 1705) were treated with cy(LLFFF)-DNP (SEQ ID NO:5), opsonized by anti-DNP antibodies, and then incubated with murine bone-marrow-derived macrophages (BMDMs). BMDMs were subsequently exposed to a solution containing gentamicin, to which K. pneumoniae strain BAA 1705 is susceptible, to kill any extracellular bacteria. Phagocytosed bacteria remain viable inside BMDMs for at least 1 h, yet are rendered inviable after 24 h by OPK (FIG. 13). Macrophages harvested at 1 h and 24 h were lysed and plated to generate bacterial colonies, which were enumerated to quantify phagocytosis and OPK.
Opsonophagocytic killing (OPK) assays. Klebsiella pneumoniae BAA1705 was treated with DNP-PCCs followed by incubation with anti-DNP antibody, as described above in the “Cell-Based ELISAs” section. These opsonized bacteria were then used to infect BMDMs at a multiplicity of infection of 50 for 0.5 h at 37° C. Bacteria were then washed by using RPMI 1640 Media and BMDMs were left in cell culture medium containing gentamicin (100 μg/ml). After 1 h and 24 h BMDMs were washed to remove gentamicin and intracellular bacteria were harvested by lysing BMDMs in RPMI media containing 0.2% Triton X 100. Bacterial CFUs were enumerated by plating onto LB agar. Bacterial counts at 1 h indicated the degree of opsonization while those at 24 h served as a measure of microbicidal activity of macrophages. For these measurements, anti-MrkA antibody and K. pneumoniae antiserum were used at dilutions of 5 μg/mL each.

In test [3] the test system is MrkA-expressing K. pneumoniae cells. In words: Whole-cell ELISA of biotinylated PCC binding.
Where [4] appears, read: strain BAA 1705, PCC 5 μM or lower.

Entries after “also recorded” stand apart in the source; their conditions may differ. Bridges are numbered along the chain shown (N, C = ends). Where no end group is shown, it is not given here. [ ]: non-standard residue; d: D form. Lys(N3) = [N-]=[N+]=NCCCC[C@H](N)C(=O)O; Pra = C#CC[C@H](N)C(=O)O

T1 sequence (P12267 23-202): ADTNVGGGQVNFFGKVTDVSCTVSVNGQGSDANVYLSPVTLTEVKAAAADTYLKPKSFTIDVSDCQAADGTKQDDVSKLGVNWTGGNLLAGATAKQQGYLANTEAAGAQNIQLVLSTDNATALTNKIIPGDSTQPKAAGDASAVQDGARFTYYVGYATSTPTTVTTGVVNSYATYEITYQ

On to “cy(ALFFF): alanine-substituted cy(LLFFF) analogue ([Lys(N3)]ALFFFX; triazole 1-7; not fully specified (residue 7); printed as cy(ALFFF))”, for which, in test [1], the “binding / affinity to full-length MrkA protein (ELISA signal)” value (from here on “binding / affinity”) was “Modestly lower binding”.

In the case of “cy(GVHRL): additional MrkA ligand with lower affinity (XGVHRL[Lys(N3)]; triazole 1-7; not fully specified (residue 1); printed as cy(GVHRL))”, in test [1], the “affinities to MrkA (likely)” value is approximately 1 µM and the “binding / affinity” value is on record as “lower affinities to MrkA”.

Regarding “cy(LAFFF): alanine-substituted cy(LLFFF) analogue ([Lys(N3)]LAFFFX; triazole 1-7; not fully specified (residue 7); printed as cy(LAFFF))”, in test [1], the “binding / affinity” value was “Modestly lower binding”.

Regarding “cy(LLAFF): alanine-substituted cy(LLFFF) analogue ([Lys(N3)]LLAFFX; triazole 1-7; not fully specified (residue 7); printed as cy(LLAFF))”, the “binding / affinity” value in test [1] is reported as “Modestly lower binding”.

Consider “cy(LLFFA)-DNP: DNP-conjugated control cy(LLFFA) ([Lys(N3)]LLFFAX; triazole 1-7; not fully specified (residue 7); printed as cy(LLFFA); also: DNP label)”, for which, in test [2], the “phagocytosis / OPK activity at 1 h, AR-PCC plus anti-DNP” value is recorded as “None of these treatments elicited phagocytosis above basal levels” and the “phagocytosis at 1 h, AR-PCC only (no anti-DNP)” value is listed as “None of these treatments elicited phagocytosis above basal levels”.

With “cy(LLFFA): control compound differing from cy(LLFFF) by a single phenyl moiety ([Lys(N3)]LLFFA[Pra]; triazole 1-7)”, in test [3] (MrkA/B/C knockout KPPR1), the “whole-cell ELISA signal, MrkA-knockout KPPR1” value is given as “ELISA intensities comparable to baseline”. Further, the “whole-cell ELISA signal at high PCC concentration, LB or G-CAA” value in test [3] (strain BAA 1705, 50 μM PCC) was “strong and comparable ELISA signals”. For the same substance, in test [3] (setting [4]), the “whole-cell ELISA 450 nm absorbance, cells cultured in G-CAA (high MrkA)” value is “near-baseline absorbances” and the “whole-cell ELISA 450 nm absorbance, cells cultured in LB (low MrkA)” value was “near-baseline absorbances”. Moreover, the “whole-cell ELISA signal, wild type KPPR1” value in test [3] (wild type KPPR1 (ATCC 43816), G-CAA media, 5 μM down to 5 nM) is on record as “much lower intensities; also recorded: Much lower binding”.

For the substance “cy(LLFFF)+R6-DNP: optimized compound cy(LLFFF)+R6 tagged with DNP ([Lys(N3)]LLFFF[Pra]RRRRRR; bridge 1-7; not fully specified (bridges); also: tagged with DNP, position not given here)”, in test [2], the “phagocytosis / OPK activity at 1 h, AR-PCC plus anti-DNP” value was “comparable to that of cy(LLFFF)-DNP” and the “phagocytosis at 1 h, AR-PCC only (no anti-DNP)” value is on record as “None of these treatments elicited phagocytosis above basal levels”. In addition, the “colony counts at 1 h, AR-PCC plus anti-DNP antibody” value in test [2] (murine BMDMs) was 85,000 CFU.

As to “cy(TTFFF): additional MrkA ligand with lower affinity ([Lys(N3)]TTFFFX; bridge 1-7; not fully specified (residue 7, bridges); printed as cy(TTFFF))”, in test [1], the “affinities to MrkA (likely)” value was approximately 1 µM and the “binding / affinity” value is “lower affinities to MrkA”.

On to “cy(YRHLG): additional MrkA ligand with lower affinity (XYRHLG[Lys(N3)]; bridge 1-7; not fully specified (residue 1, bridges); printed as cy(YRHLG))”, for which, in test [1], the “affinities to MrkA (likely)” value was approximately 1 µM and the “binding / affinity” value is “lower affinities to MrkA”.

For the origin of these results see patent US12209142B2, “SARS-CoV-2 epitope-targeted peptide immunostimulants” (Institute for Systems Biology, priority 2020, dated 2025).
